# Results published in article PMC8398714, “Synthesis and Evaluation of Biological Activities of Bis(spiropyrazolone)cyclopropanes: A Potential Application against Leishmaniasis” (Molecules, 2021).
# Entries after “also recorded” stand apart in the source; their conditions may differ. Read-outs that look alike come from different tables or passages of the source.
# How the values were obtained:
# HeLa = assay: MTS cell viability assay on HeLa cells; assay type: cell-based; conditions: Homo sapiens, 48 h, Dox 1 µM, mean ± SEM, NA = no activity, read-out: Percentage (%) of inhibition, HeLa
# [1] = test system: promastigotes of Leishmania mexicana; assay: Leishmanicidal activity, MTT assay on promastigotes; assay type: cell-based; conditions: for SI (Selectivity Index) = Citotoxic activity/Leishmanicidal activity: CC50 RAW / IC50 L. mexicana; for IC50: Leishmania mexicana
# Procedure: The leishmanicidal activity of all compounds was evaluated by measuring promastigotes’ mitochondrial activity using MTT colorimetric assay as described previously. In this study, promastigotes from Leishmania mexicana were used. The species were confirmed by amplifying and sequencing cytochrome b gene. Promastigotes were cultured at 25 °C in Schneider’s Drosophila Medium (Gibco, Invitrogen, Carlsbad, CA, USA) supplemented with 10% fetal bovine serum (Eurobio, Les Ulis, France). The medium was renewed every third day. Parasite density was determined by counting the cells using a Neubauer chamber.
# Into each well of a 96-well plate were dispensed 1 × 10^6 parasites/well. A stock solution of the compounds was prepared in DMSO (Sigma Aldrich, Saint Louis, MO, USA), and serial dilutions were added to the parasite suspension, leading to concentrations ranging from 100 to 0.001 µM, keeping the solvent concentration at 0.5%. The final volume was 200 µL for each well and triplicate conditions were carried out. Amphotericin B (Gibco) treatment (1 µM) untreated parasites and DMSO 0.5% were used as positive and negative controls, respectively. After exposure to the compounds for 48 h in culture medium, 20 µL of a solution of 5 mg/mL MTT dissolved in PBS were added to each well. The plate was incubated at 25 °C for 2 h in darkness. The plate was then centrifuged at 4400 rpm for 10 min and the culture medium was then aspirated; 50 µL of DMSO were added into each well to solubilize the formazan crystals and the plate was shaken for 5 min and then it was measured by recording changes in absorbance at 570 nm using a microplate reader Cytation 5 (BioTek) spectrophotometer. A reference wavelength of 630 nm was used as background subtraction. Optical densities were analyzed because the quantity of formazan is directly proportional to the number of viable parasites. Data were analyzed with the statistical software GraphPad Prism 7.02 (GraphPad Software, Corp.).
# [2] = test system: Leishmania mexicana cells; assay: Comet assay of Leishmania mexicana cells; assay type: cell-based; set-up: Comet tail length, mean (vary) / Comet tail length, median (Q50): unit not given here; conditions: L. mexicana, 24 h at MIC; for Comet tail length, mean (vary) / Comet tail length, median (Q50): MMS 0.011%, Kruskal-Wallis $means
# Procedure: We quantified DNA breaks by a comet assay to determine if these compounds are genotoxic. Here, L. mexicana cells were exposed for 24 h to MIC concentrations previously determined (see Materials and Methods Section) for each compound. Figure 1 represents the measurements obtained for tail length. All compounds generated DNA breaks expect 4s. […] Samples with DMSO and MMS (0.011%) were included as controls. Some representative pictures are shown at Figure S4. The effect of 4p could not be determined because the cells appear to be very damaged. The data was subjected via a Kruskal–Wallis one-way ANOVA (Statistical Analyses S2). […] These observations support a mechanism of action through the generation of DNA damage.
# For leishmania, a method previously described for yeast was adapted. Briefly, after incubating the cells in presence of the compounds for 24 h, cells were collected and washed with buffer S (1 M sorbitol, 25 mM KH2PO4 in ultrapure water and adjust to pH 6.5 with NaOH). The pellet was resuspended in 400 µL of 1.5% LMA and 40 µL was spread (second layer) onto previously agarose-coated slides (first layer).
# Slides were immersed in cold lysis buffer (30 mM NaOH, 1 M NaCl, 0.05 % (w/v) lauroylsarcosine, 50 mM EDTA, and 10 mM Tris–HCl, pH 10) for 25 min and then in cold electrophoresis alkaline buffer (30 mM NaOH, 10 mM EDTA, and 10 mM Tris–HCl, pH 10). They were then subjected to electrophoresis at 26V and 300 mA. Slides were immersed in neutralization buffer (10 mM Tris–HCl, pH 7.4; prepared in advance and stored at 4 °C) for 10 min at room temperature. The cells were then treated with proteinase K (20 min, 37 °C in humid chamber), followed by a new neutralization step. To dehydrate the slides, they were immersed in EtOH 90% and EtOH absolute for 10 min each. Finally, the slides were stained with Sybr Gold 1X.
# The DNA migration was analyzed using a LEICA microscope with fluorescence (40×) by scoring 100 cells per slide in duplicate. The tail moment parameter was then analyzed by the Comet Score software.
# RKO = assay: MTS cell viability assay on RKO cells; assay type: cell-based; conditions: Homo sapiens, 48 h; for inhibition at 100 µM: Dox 1 µM, mean ± SEM, NA = no activity, read-out: Percentage (%) of inhibition, RKO; for IC50: 15-150 µM, mean ± SEM of triplicates
# Procedure: (§1) Five tumor human cancer cell lines—cerebral astrocytoma (D-384), grade IV prostatic adenocarcinoma (PC-3), mammary adenocarcinoma (MCF-7), human colon carcinoma (RKO) and lung carcinoma (A-549)—along with one immortalized hamster cell line (CHO K-1) were used. The cells PC-3, MCF-7 and RKO were cultured in RPMI-1640, D-384 on DMEM and CHO K-1 on HAM F-12 medium supplemented with 10% fetal bovine serum (FBS, Invitrogen, Karlsruhe, Germany), 1% antibiotic-antimitotic solution (100 units/mL penicillin G, 100 µg/mL streptomycin, and 0.25 µg/mL amphotericin B, Gibco, Grand Island, NY, USA), and 1% L-glutamine (2 mM, Gibco). The cells were incubated at 37 °C in a 5% CO2 atmosphere. The viable cells were counted using the trypan blue exclusion method in a hemocytometer.
# (§2) The MTS (5-[3-(carboxymethoxy)phenyl]-3-(4,5-dimethyl-2-thiazolyl)-2-(4-sulfo- phenyl)-2H-tetrazolium inner salt) cell viability assay was used to assess the inhibitory effects of the extracts on the survival of human cancer cell lines. A total of 3–5 × 10^3 cells/well were seeded into 96-well plates and were allowed to adhere for 24 h. […] Each concentration/assay was performed three times. Dimethyl sulfoxide (DMSO) was used as a negative control at a final concentration of 0.1% v/v, and 1 µM Doxorubicin was used as a positive control. The cells were incubated with the treatments for 48 h, after which 20 µL MTS (5 mg/mL, Aqueous One Solution Reagent, Gibco) was added and further incubated for 4 h at 37 °C. The absorbance was measured at 570 nm. The data obtained with cells treated with DMSO were defined to represent 100% viability.
# [3] = MTS cell viability assay on A-549 cells; assay type: cell-based; conditions: Homo sapiens; 48 h, 15-150 µM, mean ± SEM of triplicates
# CHO-K1 = assay: MTS cell viability assay on immortalized CHO-K1 cells; assay type: cell-based, hamster; conditions: 48 h, Dox 1 µM, mean ± SEM, NA = no activity, read-out: Percentage (%) of inhibition, CHO-K1
# Procedure: as §1, §2
# [4] = read-out: IC50 original values, x.1 (Mean)
# [5] = L. mexicana promastigotes, 48 h, MTT, read-out: Leishmanicidal Activity IC50
SMILES,inhibition at 100 µM (HeLa) [%],SI (Selectivity Index) = Citotoxic activity/Leishmanicidal activity [1],"IC50 [1, 4] [µM]","IC50 [1, 5] [µM]","Comet tail length, mean (vary) [2]","Comet tail length, median (Q50) [2]",inhibition at 100 µM (RKO) [%],IC50 (RKO) [µM],melting point [°C],IC50 [3] [µM],inhibition at 100 µM (CHO-K1) [%],Genotoxic effect (DNA breaks) in comet assay ([2]; in words)
"CC1=NN(c2ccccc2)C(=O)[C@@]12C(c1cccc([N+](=O)[O-])c1)[C@@]21C(=O)N(c2ccccc2)N=C1C (relative stereo) [4d, (5R*,6R*)-11-(3-Nitrophenyl)-4,10-dimethyl-2,8-diphenyl-2,3,8,9-tetraazadispiro[4.0.4.1]undeca-3,9-diene-1,7-dione]",48.6 ± 4.91,26.0,0.148,0.15 ± 0.02,75120000,83500000,68.9 ± 1.72,94 ± 4.09,183.9 to 185,94.8 ± 4.54,4.4 ± 0.72,
"COC(=O)c1ccc(C2[C@@]3(C(=O)N(c4ccccc4)N=C3C)[C@]23C(=O)N(c2ccccc2)N=C3C)cc1 (relative stereo) [4q, (5R*,6R*)-Methyl-4[4,10-dimethyl-2,8-diphenyl-2,3,8,9-tetraazadispiro[4.0.4.1]undeca-3,9-diene-1,7-dione-11-yl]benzoate]",31.7 ± 1.52,14.3,0.277,0.28 ± 0.04,172025000,177500000,62.9 ± 1.53,102 ± 7.8,162.5 to 163.9,85.1 ± 10.5,2.29 ± 2.6,highest genotoxic activity; also recorded: strongest effects
"CC1=NN(c2ccccc2)C(=O)[C@@]12C(c1ccc(C(F)(F)F)cc1)[C@@]21C(=O)N(c2ccccc2)N=C1C (relative stereo) [4r, (5R*,6R*)-11-(4-Trifluoromethylphenyl)-4,10-dimethyl-2,8-diphenyl-2,3,8,9-tetraazadispiro[4.0.4.1]undeca-3,9-diene-1,7-dione]",50.2 ± 0.52,34.2,0.188,0.19 ± 0.06,96310000,98500000,64.71 ± 0.52,60.7 ± 9.95,154.6 to 156.5,78.7 ± 7.9,4.74 ± 3.04,
